# Results as given in patent publication US5624957A, “Rary-specific retinobenzoic acid derivatives” (Bristol-Myers Squibb Company, priority 1995, dated 1997).
# How the values were obtained:
# [1] = system: Rhino Mouse Utriculi; assay: Rhino mouse model, reduction of utriculi (comedolytic activity); type: in vivo; details: for ED30 (the concentration producing a 30% reduction in the rhino mouse utriculi): interpolation of regression lines of log concentration-percent reduction plots
# Experimental: When representative compounds of the present invention were tested using that same procedure, the ED30 (the concentration producing a 30% reduction in the rhino mouse utriculi) values calculated by interpolation of the regression lines of the log concentration-percent reduction plots were as follows: […]
# [2] = system: RAR α, β, or γ; assay: Receptor transactivation assay, RAR subtypes taken together; type: cell-based; details: read-out: EC50 for retinoic acid; varies for given receptors; usually in this range
# From the text: Activation of just one receptor and failure to activate another is the basis for selectivity/specificity. In our definitions, "selectivity" means that the compound preferentially activates one receptor but also activates at least one other at a higher concentration and "specificity" means that the compound activates only one receptor in the concentration range tested. The details of the receptor-based transactivation assay are disclosed in the literature, e.g. see Nature 1988, 332, 850-853.
# (§1) In the retinoid transactivation assay, HeLa cells are co-transfected with DNA encoding RAR α, β, or γ, and an RAR-responsive CAT (chloramphenicol acetyltransferase) reporter gene. Retinoid efficacy is measured by the concentration of induced CAT gene product as determined by ELISA assay. Retinoic acid (RA) is used as a reference compound. […] The mean EC50 value for each of the receptors is calculated using a computer generated induced-fit program.
# "N.A." means that the compound had no transactivation at any dose tested (up to 10^-6 M).
# [3] = biological target: T1, RARγ (Homo sapiens, UniProt P13631); assay: Receptor transactivation assay, RARγ (CAT reporter, HeLa cells); type: cell-based
# T1 construct: expressed in transfected cells; host or cells: HeLa
# T1 sequence (P13631 1-454): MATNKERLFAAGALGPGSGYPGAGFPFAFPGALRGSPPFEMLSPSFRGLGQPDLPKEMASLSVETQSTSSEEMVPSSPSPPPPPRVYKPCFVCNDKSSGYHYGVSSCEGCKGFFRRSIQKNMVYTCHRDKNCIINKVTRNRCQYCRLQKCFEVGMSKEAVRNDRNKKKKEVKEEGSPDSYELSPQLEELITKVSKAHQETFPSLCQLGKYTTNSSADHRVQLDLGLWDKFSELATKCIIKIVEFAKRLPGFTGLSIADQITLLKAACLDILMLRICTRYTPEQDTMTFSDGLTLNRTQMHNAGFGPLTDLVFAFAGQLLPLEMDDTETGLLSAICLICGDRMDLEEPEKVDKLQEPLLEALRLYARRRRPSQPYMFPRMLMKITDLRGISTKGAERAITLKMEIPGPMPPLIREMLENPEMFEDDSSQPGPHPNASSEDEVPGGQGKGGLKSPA
# Experimental: (§2) Activation of just one receptor and failure to activate another is the basis for selectivity/specificity.
# as §1, with “assay.” for “assay. Retinoic acid (RA) is used as a reference compound.”
# [4] = rat, in vivo, po, 150 mg/kg
# From the text: Compounds having the beneficial pharmacological effects of retinoids but without retinoid-induced hypertriglyceridemia would be especially desirable for oral retinoid therapy.
# [5] = systemic use; cited from earlier work
# [6] = biological target: T2, RARα (Homo sapiens, UniProt P10276); assay: Receptor transactivation assay, RARα (CAT reporter, HeLa cells); type: cell-based
# T2 construct: expressed in transfected cells; host or cells: HeLa
# T2 sequence (P10276 1-462): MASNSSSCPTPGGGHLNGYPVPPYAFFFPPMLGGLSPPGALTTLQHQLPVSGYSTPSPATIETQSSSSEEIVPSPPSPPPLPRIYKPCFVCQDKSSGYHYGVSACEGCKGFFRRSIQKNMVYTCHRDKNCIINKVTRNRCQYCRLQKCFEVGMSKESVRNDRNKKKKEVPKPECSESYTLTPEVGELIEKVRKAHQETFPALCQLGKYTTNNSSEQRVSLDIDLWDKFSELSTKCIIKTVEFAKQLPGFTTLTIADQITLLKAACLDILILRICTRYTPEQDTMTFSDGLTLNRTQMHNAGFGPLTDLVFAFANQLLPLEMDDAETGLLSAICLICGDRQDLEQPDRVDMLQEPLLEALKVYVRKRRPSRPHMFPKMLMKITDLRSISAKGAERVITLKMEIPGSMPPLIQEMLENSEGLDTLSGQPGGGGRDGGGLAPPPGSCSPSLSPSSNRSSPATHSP
# Experimental: as §2
# as §1, with “assay.” for “assay. Retinoic acid (RA) is used as a reference compound.”
# [7] = biological target: T3, RARβ (Homo sapiens, UniProt P10826); assay: Receptor transactivation assay, RARβ (CAT reporter, HeLa cells); type: cell-based
# T3 construct: expressed in transfected cells; host or cells: HeLa
# T3 sequence (P10826 1-448 isoform P10826-2): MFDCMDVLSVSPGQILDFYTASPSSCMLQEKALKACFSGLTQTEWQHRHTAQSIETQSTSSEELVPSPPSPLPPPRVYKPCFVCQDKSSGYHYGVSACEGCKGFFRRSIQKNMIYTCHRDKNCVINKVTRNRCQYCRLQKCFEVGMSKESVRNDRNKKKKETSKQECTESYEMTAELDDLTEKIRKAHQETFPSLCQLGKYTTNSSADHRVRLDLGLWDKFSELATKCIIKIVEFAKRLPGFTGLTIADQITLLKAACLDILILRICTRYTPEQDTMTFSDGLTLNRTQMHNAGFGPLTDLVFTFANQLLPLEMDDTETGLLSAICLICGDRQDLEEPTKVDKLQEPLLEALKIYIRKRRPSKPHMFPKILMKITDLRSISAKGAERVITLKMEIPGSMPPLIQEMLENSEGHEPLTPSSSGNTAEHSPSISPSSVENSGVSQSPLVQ
# Experimental: as §2
# as §1, with “assay.” for “assay. Retinoic acid (RA) is used as a reference compound.”
Transactivation ratio γ (EC50 of test compound / EC50 of retinoic acid) [3],Compound,ED30 (the concentration producing a 30% reduction in the rhino mouse utriculi) [1],also measured
–,"CC1(C)CCC(C)(C)c2cc(C(O)C(=O)Nc3ccc(C(=O)O)cc3F)ccc21 (stereo not shown) [Example 1, 3-Fluoro-4(2'(5"",6"",7"",8""-tetrahydro-5"",5"",8"",8""-tetramethyl-2""-naphthyl)-2'-hydroxy)acetamidobenzoic acid]",155 µM,–
40,CC1(C)CCC(C)(C)c2cc(C(O)C(=O)Nc3ccc(C(=O)O)cc3O)ccc21 (stereo not shown) [Example 7],–,Reduction in rhino mouse utriculi ([1]; at 16.5 mM): 32%
66.7,Cc1cc(C(=O)O)ccc1NC(=O)C(O)c1ccc2c(c1)C(C)(C)CCC2(C)C (stereo not shown) [Example 8],1050 µM,–
–,CC1=C(/C=C/C(C)=C/C=C/C(C)=C\C(=O)O)C(C)(C)CCC1 [13-cis-retinoic acid],–,"Increase in serum triglyceride levels [4]: ~ 350%; Elevation in triglyceride levels, fraction of patients treated [5]: […]"
13.3,CC1(C)CCC(C)(C)c2cc(C(O)C(=O)Nc3ccc(C(=O)O)cc3Cl)ccc21 (stereo not shown) [Example 6],–,–
6.7,CC1(C)CCC(C)(C)c2cc(C(O)C(=O)Nc3ccc(C(=O)O)cc3)ccc21 (stereo not shown) [Example 2],–,Transactivation ratio α (EC50 of test compound / EC50 of retinoic acid) [6]: 66.7; Transactivation ratio β (EC50 of test compound / EC50 of retinoic acid) [7]: 50
